A value given as a limit tells only on which side of the number the result lay.

Experiment [1] has as its target T1, adenosine A3 receptor (A3R) (Homo sapiens, UniProt P0DMS8).
T1 construct: expressed in transfected cells; host or cells: CHO-K1
T1 sequence (P0DMS8 1-318): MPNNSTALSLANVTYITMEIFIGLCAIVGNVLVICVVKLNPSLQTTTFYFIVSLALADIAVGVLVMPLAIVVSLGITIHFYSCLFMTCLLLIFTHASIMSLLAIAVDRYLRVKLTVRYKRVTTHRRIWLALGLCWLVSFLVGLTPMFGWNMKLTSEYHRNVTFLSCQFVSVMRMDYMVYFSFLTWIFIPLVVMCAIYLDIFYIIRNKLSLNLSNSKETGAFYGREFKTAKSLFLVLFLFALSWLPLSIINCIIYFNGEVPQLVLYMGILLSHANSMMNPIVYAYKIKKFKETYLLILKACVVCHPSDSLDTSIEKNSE
The experiment can be described thus: Inhibition of the adenosine A3 receptor cAMP signaling pathway in CHO-K1/A3R cells (HTRF). In kind it is cell-based. Particulars: for IC50: CHO-K1/A3R cells, cAMP, forskolin 10 μM, 2Cl-IB-MECA 5 nM; for IC50 ratio (A3R/A2aR): selectivity A3R over A2aR. An excerpt: (§1) Determination of the inhibition activity of the compounds of the present invention on the adenosine A2a receptor (A2aR) cAMP signaling pathway, the adenosine A2b receptor (A2bR) cAMP signaling pathway, the adenosine A1 receptor (A1R) cAMP signaling pathway and the adenosine A3 receptor (A3R) cAMP signaling pathway.
(§2) The inhibition activity of the compounds of the present invention on the adenosine A2a receptor (A2aR) cAMP signaling pathway, the adenosine A2b receptor cAMP signaling pathway, the adenosine A1 receptor cAMP signaling pathway and the adenosine A3 receptor cAMP signaling pathway was determined by the following method. The experimental method is briefly described as follows:
2.4 Adenosine A3 Receptor
CHO-K1/A3R cells were cultured in DMEM/F12 medium containing 10% fetal bovine serum and 10 μg/ml puromycin. The cells were digested with the cell separation buffer during the experiment. The cells were resuspended in the balanced salt buffer containing 20 mM HEPES and 0.1% bovine serum albumin and counted, and the cell density was adjusted to 5×10^5 cells/ml. In the 384-well plate, each well was added with 12.5 μl of cell suspension, and 6.25 μl of test compound (4× concentration) formulated with the balanced salt buffer containing 20 mM HEPES, 0.1% bovine serum albumin, 54 μM rolipram and 2.7 U/ml adenosine deaminase, and the plate was incubated at room temperature for 30 minutes. Each well was then added with 6.25 μl of forskolin and 2Cl-IB-MECA (4× concentration) formulated with the balanced salt buffer containing 20 mM HEPES, 0.1% bovine serum albumin, 54 μM rolipram and 2.7 U/ml adenosine deaminase, and the plate was incubated at room temperature for 30 minutes. The final concentrations of the compounds were: 100000, 10000, 1000, 100, 10, 1, 0.1 and 0 nM. The final concentrations of forskolin was 10 μM. The final concentration of 2Cl-IB-MECA was 5 nM. Intracellular cAMP concentration was detected with the cAMP dynamic 2 kit. cAMP-d2 and Anti-cAMP-Eu-Cryptate were diluted respectively with the cAMP lysis buffer at a ratio of 1:4. Each well was added with 12.5 μl of diluted cAMP-d2, followed by addition of 12.5 μl of diluted Anti-cAMP-Eu-Cryptate, and the plate was incubated at room temperature in the dark for 1 hour. The HTRF signal values were read by the PHERAstar multi-function microplate reader.

Experiment [2] addresses T2, adenosine A2b receptor (A2bR) (Homo sapiens, UniProt P29275).
T2 construct: expressed in transfected cells; host or cells: CHO-K1
T2 sequence (P29275 1-332): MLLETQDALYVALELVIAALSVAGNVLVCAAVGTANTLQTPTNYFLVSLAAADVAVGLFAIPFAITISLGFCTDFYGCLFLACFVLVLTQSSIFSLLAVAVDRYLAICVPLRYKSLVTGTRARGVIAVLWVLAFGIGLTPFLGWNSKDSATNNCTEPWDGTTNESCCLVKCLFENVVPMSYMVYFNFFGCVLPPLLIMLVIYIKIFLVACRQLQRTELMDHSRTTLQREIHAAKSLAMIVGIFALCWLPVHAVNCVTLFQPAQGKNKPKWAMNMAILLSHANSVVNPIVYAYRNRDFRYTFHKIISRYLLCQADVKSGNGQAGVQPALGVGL
Description: Inhibition of the adenosine A2b receptor cAMP signaling pathway in CHO-K1/A2bR cells (HTRF). Particulars: ethyl carbazole 1 μM, Table 2. In kind it is cell-based.
Description: as §1, §2
2.2 Adenosine A2b Receptor
CHO-K1/A2bR cells were cultured in DMEM/F12 medium containing 10% fetal bovine serum and 1 mg/ml G418. The cells were digested with the cell separation buffer during the experiment. The cells were resuspended in the balanced salt buffer containing 20 mM HEPES and 0.1% bovine serum albumin and counted, and the cell density was adjusted to 10^6 cells/ml. In the 384-well plate, each well was added with 5 μl of cell suspension, and 2.5 μl of test compound (4× concentration) formulated with the balanced salt buffer containing 20 mM HEPES, 0.1% bovine serum albumin, 54 μM rolipram and 2.7 U/ml adenosine deaminase, and the plate was incubated at room temperature for 30 minutes. Each well was then added with 2.5 μl of […] (4× concentration) (Torcis, 1691/10) formulated with the balanced salt buffer containing 20 mM HEPES, 0.1% bovine serum albumin, 54 μM rolipram and 2.7 U/ml adenosine deaminase, and the plate was incubated at room temperature for 30 minutes. The final concentrations of the compounds were: 100000, 10000, 1000, 100, 10, 1, 0.1 and 0 nM. The final concentration of […] was 1 μM. Intracellular cAMP concentration was detected with the cAMP dynamic 2 kit. cAMP-d2 and Anti-cAMP-Eu-Cryptate were diluted respectively with the cAMP lysis buffer at a ratio of 1:4. Each well was added with 5 μl of diluted cAMP-d2, followed by addition of 5 μl of diluted Anti-cAMP-Eu-Cryptate, and the plate was incubated at room temperature in the dark for 1 hour. The HTRF signal values were read by the PHERAstar multi-function microplate reader.
On the technique in general: In TR-FRET formats the signal depends on donor and acceptor labels being close together.

Regarding `Nc1nnc(-c2cc(F)c3ncccc3c2)c(-c2ccccc2)n1` [Example 2, 6-(8-Fluoroquinolin-6-yl)-5-phenyl-1,2,4-triazin-3-amine], in experiment [1], the IC50 was greater than 10000 nM and the “IC50 ratio (A3R/A2aR)” value is >10^4.
Compound `Nc1nnc(-c2ccc3ncccc3c2)c(-c2ccccc2)n1` [Example 3, 5-Phenyl-6-(quinolin-6-yl)-1,2,4-triazin-3-amine] yielded an IC50 in experiment [2] of 47 nM. In addition, in experiment [1], the IC50 was greater than 10000 nM and the “IC50 ratio (A3R/A2aR)” value is >10^4.
Taken in the same sequence, the figures for `Cc1ncnc2ccc(-c3nnc(N)nc3-c3ccccc3)cc12` [Example 15, 6-(4-Methylquinazolin-6-yl)-5-phenyl-1,2,4-triazin-3-amine] were 7 nM, greater than 10000 nM and >10^4.
In the same order, the values of `Cc1ccnc2c(F)cc(-c3nnc(N)nc3-c3ccccc3)cc12` [Example 16, 6-(8-Fluoro-4-methylquinolin-6-yl)-5-phenyl-1,2,4-triazin-3-amine] are 18 nM, greater than 10000 nM and >10^4.
In the same order, the values of `Cc1ccnc2ccc(-c3nnc(N)nc3-c3ccccc3F)cc12` [Example 17, 5-(2-Fluorophenyl)-6-(4-methylquinolin-6-yl)-1,2,4-triazin-3-amine] are 22 nM, greater than 10000 nM and >10^4.
Regarding `Cc1ccnc2ccc(-c3nnc(N)nc3-c3ccc(F)cc3)cc12` [Example 18, 5-(4-Fluorophenyl)-6-(4-methylquinolin-6-yl)-1,2,4-triazin-3-amine], in experiment [1], the IC50 is greater than 10000 nM and the “IC50 ratio (A3R/A2aR)” value is >10^4.
As to `Cc1ncnc2ccc(-c3nnc(N)nc3-c3ccc(F)cc3)cc12` [Example 19, 5-(4-Fluorophenyl)-6-(4-methylquinazolin-6-yl)-1,2,4-triazin-3-amine], 25 nM corresponded to half-maximal inhibition in experiment [2] (IC50). Moreover, in experiment [1], the IC50 is greater than 10000 nM and the “IC50 ratio (A3R/A2aR)” value is >10^4.
Take `Cc1ccnc2c(F)cc(-c3nnc(N)nc3-c3ccc(F)cc3)cc12` [Example 20, 6-(8-Fluoro-4-methylquinolin-6-yl)-5-(4-fluorophenyl)-1,2,4-triazin-3-amine]: in experiment [1], the IC50 was greater than 10000 nM and the “IC50 ratio (A3R/A2aR)” value is listed as >10^3.
As for `[2H]C([2H])([2H])c1ccnc2ccc(-c3nnc(N)nc3-c3ccc(F)cc3)cc12` [Example 22, 5-(4-Fluorophenyl)-6-[4-(trideuteromethyl)-6-quinolinyl]-1,2,4-triazin-3-amine], in experiment [2], half-maximal inhibition (IC50) required 7 nM. For the same compound, in experiment [1], the IC50 was greater than 10000 nM and the “IC50 ratio (A3R/A2aR)” value is >10^4.
As for `Cc1ccnc2c(F)cc(-c3nnc(N)nc3-c3ccccc3F)cc12` [Example 31, 6-(8-Fluoro-4-methylquinolin-6-yl)-5-(2-fluorophenyl)-1,2,4-triazin-3-amine], in experiment [1], the IC50 is greater than 10000 nM and the “IC50 ratio (A3R/A2aR)” value is >10^3.
In the same order, the values of `CCc1ccnc2ccc(-c3nnc(N)nc3-c3ccc(F)cc3)cc12` [Example 44, 6-(4-Ethylquinolin-6-yl)-5-(4-fluorophenyl)-1,2,4-triazin-3-amine] are greater than 10000 nM and >10^4.
`Cc1ncnc2c(F)cc(-c3nnc(N)nc3-c3ccccc3)cc12` [Example 45, 6-(8-Fluoro-4-methylquinazolin-6-yl)-5-phenyl-1,2,4-triazin-3-amine] registered an IC50 in experiment [2] of 25 nM. Also, in experiment [1], the IC50 was greater than 10000 nM and the “IC50 ratio (A3R/A2aR)” value is given as >10^3.
Taken in the same sequence, the figures for `[2H]C([2H])([2H])c1ncnc2ccc(-c3nnc(N)nc3-c3ccc(F)cc3)cc12` [Example 52, 5-(4-Fluorophenyl)-6-(4-(methyl-d3)quinazolin-6-yl)-1,2,4-triazin-3-amine] were 14 nM, greater than 10000 nM and >10^4.

What is called IC50 is the midpoint of a concentration-inhibition curve. Low readings indicate greater potency, high ones weaker potency.

The values are drawn from patent US11014904B2, “1,2,4-triazine-3-amine derivative, preparation method therefor, and use thereof in medicine” (Jiangsu Hengrui Medicine Co., Ltd., priority 2017, dated 2021).
